# Entries after “also recorded” stand apart in the source; their conditions may differ. Positions of bridges follow the written chain, without caps; N, C: chain ends. Non-standard residues stand in square brackets, D forms with d. Residues, ends and D or L forms follow the SMILES beside them. *: point of attachment. Ahx = NCCCCCC(=O)O; Acm = CC(=O)NC*
# What was measured:
# 20G7 antibody [1] = assay: Calibrator standard range in BioPlex 2200 proBNP assay; format: binding; details: FIGS. 14 and 15
# Method: (§1) The CaliproBNP1 calibrator was diluted to 1 μg/mL, 0.2 μg/mL, 0.1 μg/mL, and 0.02 μg/mL, the CaliproBNP3 calibrator was diluted to 1.6 μg/mL, 0.8 μg/mL, 0.3 μg/mL, 0.06 μg/mL, the CaliproBNP5 and CaliproBNP6 calibrators were diluted to from 100 ng/ml to 0.01 ng/ml in the same 0.1 M succinate buffer, pH 7.6.
# [2] = Accelerated liquid stability, BioPlex 2200 proBNP assay
# Method: (§2) The different compounds were tested at different concentrations diluted in 0.1 M succinate buffer, pH 7.6, containing 5% BSA, 2 mM CaCl2, 10% antiproteases cocktail (Sigma reference P2714), 0.1% Proclin, 0.095% NaN3 and 0.1% sodium benzoate.
# (§3) The compounds stability was studied in accelerated condition (room temperature) compared to synthetic BNP(1-32) (Sigma-Aldrich, Etats-Unis, #B-5900) and recombinant proBNP(1-108) (HyTest Ref. 8PRO8) in the following way:
# (§4) Recombinant proBNP(1-108), synthetic BNP(1-32) and calibrator peptides were diluted in 0.1 M succinate buffer, pH 7.6 described above. Each solution was divided in 10 tubes placed at room temperature (20° C.±5° C.). Then one tube of each solution was frozen at J0, J+7, J+14, J+21. At J+21, the different solutions were thawed and assayed by means of the BioPlex™ 2200 proBNP assay described in Example 14 or of the immunoassays described in Examples 8.2 and 10.2.
# (§5) In the BioPlex™ 2200 proBNP assay, the stability of two concentrations of proBNP(1-108), 10 ng/mL and 1 ng/mL, of CaliproBNP1, 2 μg/mL and 0.125 μg/mL and CaliproBNP3, 1 μg/mL and 0.3 μg/mL, were analyzed. In ELISA format, three concentrations of proBNP(1-108) and BNP(1-32), 1.56 ng/mL, 0.78 ng/ml and 0.39 ng/mL, and of CaliproBNP5, […], 31 ng/mL and 15.6 ng/mL, were analysed.
# 20G7 antibody [3] = assay: Calibrator standard range in ELISA with 20G7 in revelation; format: binding; details: FIGS. 16 and 17
# Method: as §1
# [4] = Accelerated liquid stability, ELISA format
# Method: as §2, §3, §4, §5
# BNP(1-32) = target: T1, BNP(1-32) (Homo sapiens, UniProt P16860); assay: Immunisation of mice, ELISA of sera; format: in vivo; details: Balb/c mice immunised with KLH-coupled peptide
# T1 construct: BNP(1-32): synthetic peptide (Sigma-Aldrich, USA, #B-5900); purchased Sigma-Aldrich B-5900; host or cells: chemical synthesis
# T1 sequence (P16860 103-134 limits assumed): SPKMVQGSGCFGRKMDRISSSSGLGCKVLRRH
# Method: In order to produce monoclonal antibodies, ten mice (Balb/c strain females, 5 weeks old, ref: SIFE055, Charles Rivers, Mass., USA) were immunised using one of the following peptides:
# For the first injection, an emulsion of 100 μg of KLH-coupled peptide (at a concentration of 1 mg/ml) diluted to ½ in Freund's complete adjuvant (Sigma, #F-5881) was prepared, and 200 μL of said emulsion (i.e. 100 μg of peptide) were injected subcutaneously into each mouse. At intervals of 20 days, three 200 μL booster shots of an emulsion of KLH-coupled peptide (i.e. 100 μg of peptide) and Freund's incomplete adjuvant (Sigma, #F-5506) were injected subcutaneously, then peritoneally, into each mouse.
# An ELISA test was carried out on a solid support to detect the presence of anti-BNP(1-32) antibodies in a mouse serum sample. […]
# The microplate was washed three times with 0.1% PBS-T. Each serum from previously immunised mice was subsequently diluted tenfold with 0.1% PBS-T containing 0.1% milk (semi-skimmed), then deposited on the basis of 100 μL per well and left to incubate for two hours at 37° C. […] The enzymatic reaction was stopped by adding 50 μL of sulphuric acid (H2SO4, 4 N) per well, and the OD at 490 nm was subsequently measured in each well.
# [5] = room temperature, up to J0 + 21
compound,measurement,setting,value
"CC[C@H](C)[C@H](NC(=O)[C@H](CCCNC(=N)N)NC(=O)[C@H](CC(=O)O)NC(=O)[C@H](CCSC)NC(=O)[C@H](CCCCN)NC(=O)[C@H](CCCNC(=N)N)NC(=O)CNC(=O)[C@H](Cc1ccccc1)NC(=O)[C@H](CO)NC(=O)CCCCCNC(=O)[C@@H](NC(=O)[C@H](CCSC)NC(=O)[C@H](CCCCN)NC(=O)[C@@H]1CCCN1C(=O)[C@H](CO)NC(=O)[C@H](CCCNC(=N)N)NC(=O)[C@@H]1CCCN1C(=O)[C@H](C)NC(=O)[C@H](CCCNC(=N)N)NC(=O)[C@H](CC(C)C)NC(=O)[C@@H](NC(=O)[C@H](Cc1ccc(O)cc1)NC(C)=O)[C@@H](C)O)C(C)C)C(=O)N[C@@H](CO)C(=O)N[C@@H](CO)C(N)=O [CaliproBNP1, Ac-YTLRAPRSPKMV-Ahx-SFGRKMDRISS-CONH2] (Ac-YTLRAPRSPKMV[Ahx]SFGRKMDRISS-NH2)",signal in the BioPlex 2200 proBNP assay,20G7 antibody [1],increasing signal with the compound concentration
"CSCC[C@H](NC(=O)[C@H](CCCCN)NC(=O)[C@H](CCCNC(=N)N)NC(=O)CNC(=O)[C@H](Cc1ccccc1)NC(=O)CCCCCNC(=O)CNC(=O)[C@H](CCC(N)=O)NC(=O)[C@@H](NC(=O)[C@H](CCSC)NC(=O)[C@H](CCCCN)NC(=O)[C@@H]1CCCN1C(=O)[C@H](CO)NC(=O)[C@H](CCCNC(=N)N)NC(=O)[C@@H]1CCCN1C(=O)[C@H](C)NC(=O)[C@H](CCCNC(=N)N)NC(=O)[C@H](CC(C)C)NC(=O)[C@@H](NC(=O)[C@H](Cc1ccc(O)cc1)NC(C)=O)[C@@H](C)O)C(C)C)C(=O)N[C@@H](CC(=O)O)C(=O)N[C@@H](CCCNC(=N)N)C(N)=O [CaliproBNP3, Ac-YTLRAPRSPKMVQG-Ahx-FGRKMDR-CONH2] (Ac-YTLRAPRSPKMVQG[Ahx]FGRKMDR-NH2)",signal in the BioPlex 2200 proBNP assay,20G7 antibody [1],increasing signal with the compound concentration
same,"Liquid stability at room temperature in buffer, ratio “signal at J0 + X/signal at J0”","[2]; J0 + 7, 0.3 μg/mL",0.91
same,"Liquid stability at room temperature in buffer, ratio “signal at J0 + X/signal at J0”","[2]; J0 + 7, 1 μg/mL",0.92
same,"Liquid stability at room temperature in buffer, ratio “signal at J0 + X/signal at J0”","[2]; J0 + 14, 0.3 μg/mL",0.98
same,"Liquid stability at room temperature in buffer, ratio “signal at J0 + X/signal at J0”","[2]; J0 + 14, 1 μg/mL",1.02
same,"Liquid stability at room temperature in buffer, ratio “signal at J0 + X/signal at J0”","[2]; J0 + 21, 0.3 μg/mL",1.15
same,"Liquid stability at room temperature in buffer, ratio “signal at J0 + X/signal at J0”","[2]; J0 + 21, 1 μg/mL",1.06
same,stability compared with recombinant proBNP(1-108),[2]; [5],higher stability
"CSCC[C@H](NC(=O)[C@H](CCCCN)NC(=O)[C@H](CCCNC(=N)N)NC(=O)CNC(=O)[C@H](Cc1ccccc1)NC(=O)CCCCCNC(=O)CNC(=O)[C@H](CO)NC(=O)CNC(=O)[C@H](CCC(N)=O)NC(=O)[C@@H](NC(=O)[C@H](CCSC)NC(=O)[C@H](CCCCN)NC(=O)[C@@H]1CCCN1C(=O)[C@H](CO)NC(C)=O)C(C)C)C(=O)N[C@@H](CC(=O)O)C(=O)N[C@@H](CCCNC(=N)N)C(N)=O [CaliproBNP5, Ac-SPKMVQGSG-Ahx-FGRKMDR-CONH2] (Ac-SPKMVQGSG[Ahx]FGRKMDR-NH2)",signal in the BNP(1-32) and the proBNP(1-108) assay,20G7 antibody [3],signal increasing with the compound concentration
same,"Liquid stability at room temperature in buffer, ratio “signal at J0 + X/signal at J0”","[4]; J0 + 7, 0.0156 ng/mL",1.1
same,"Liquid stability at room temperature in buffer, ratio “signal at J0 + X/signal at J0”","[4]; J0 + 7, 0.031 ng/mL",1.06
same,"Liquid stability at room temperature in buffer, ratio “signal at J0 + X/signal at J0”","[4]; J0 + 7, 0.0625 ng/mL",1.02
same,"Liquid stability at room temperature in buffer, ratio “signal at J0 + X/signal at J0”","[4]; J0 + 14, 0.0156 ng/mL",1.01
same,"Liquid stability at room temperature in buffer, ratio “signal at J0 + X/signal at J0”","[4]; J0 + 14, 0.031 ng/mL",1.01
same,"Liquid stability at room temperature in buffer, ratio “signal at J0 + X/signal at J0”","[4]; J0 + 14, 0.0625 ng/mL",1.02
same,"Liquid stability at room temperature in buffer, ratio “signal at J0 + X/signal at J0”","[4]; J0 + 21, 0.0156 ng/mL",1.10
same,"Liquid stability at room temperature in buffer, ratio “signal at J0 + X/signal at J0”","[4]; J0 + 21, 0.031 ng/mL",1.06
same,"Liquid stability at room temperature in buffer, ratio “signal at J0 + X/signal at J0”","[4]; J0 + 21, 0.0625 ng/mL",1.1
same,stability compared with recombinant proBNP(1-108) and BNP(1-32),[4]; [5],higher stability
"Ac-TGCFGRKMDRISTSTAIGCKVLCys-CONH2 (Ac-TGCFGRKMDRISTSTAIGCKVLC-NH2; disulfide 3-19; also: KLH-coupled) [SEQ ID NO: 4, immunogen peptide, coupled to KLH]",immune response / antiserum reactivity towards BNP(1-32),BNP(1-32),very reactive; also recorded: much greater
"Ac-YTLRAPRSPKMV-Ahx-FGRKMDR-Ahx-SGLGC*KVLRRH-COOH (Ac-YTLRAPRSPKMV[Ahx]FGRKMDR[Ahx]SGLGC(Acm)KVLRRH-OH; SMILES CSCC[C@H](NC(=O)[C@H](CCCCN)NC(=O)[C@H](CCCNC(=N)N)NC(=O)CNC(=O)[C@H](Cc1ccccc1)NC(=O)CCCCCNC(=O)[C@@H](NC(=O)[C@H](CCSC)NC(=O)[C@H](CCCCN)NC(=O)[C@@H]1CCCN1C(=O)[C@H](CO)NC(=O)[C@H](CCCNC(=N)N)NC(=O)[C@@H]1CCCN1C(=O)[C@H](C)NC(=O)[C@H](CCCNC(=N)N)NC(=O)[C@H](CC(C)C)NC(=O)[C@@H](NC(=O)[C@H](Cc1ccc(O)cc1)NC(C)=O)[C@@H](C)O)C(C)C)C(=O)N[C@@H](CC(=O)O)C(=O)N[C@@H](CCCNC(=N)N)C(=O)NCCCCCC(=O)N[C@@H](CO)C(=O)NCC(=O)N[C@@H](CC(C)C)C(=O)NCC(=O)N[C@@H](CSCNC(C)=O)C(=O)N[C@@H](CCCCN)C(=O)N[C@H](C(=O)N[C@@H](CC(C)C)C(=O)N[C@@H](CCCNC(=N)N)C(=O)N[C@@H](CCCNC(=N)N)C(=O)N[C@@H](Cc1c[nH]cn1)C(=O)O)C(C)C) [CaliproBNP6, triepitopic calibrator]",signal in the BNP(1-32) and the proBNP(1-108) assay,20G7 antibody [3],signal increasing with the compound concentration
